Data taken from ChEMBL document CHEMBL1141683, “Substituted aryl pyrimidines as potent and soluble TRPV1 antagonists” (Bioorg Med Chem Lett, 2008).
≈ marks a conversion by molar mass, not a printed value.

How the values were obtained:
physchem [1] = settings: phosphate buffered saline, pH 7
physchem [2] = settings: simulated intestinal fluid
physchem [3] = settings: 0.01N HCl
in vivo [4] = settings: Sprague-Dawley, rat, iv, 1 mg/kg
Rattus norvegicus [5] = species: Rattus norvegicus; settings: in vivo, po, 5 mg/kg
in vivo [6] = settings: Sprague-Dawley, rat, po, 5 mg/kg
Rattus norvegicus [7] = species: Rattus norvegicus; settings: in vivo, po, 5 mg/kg; remark: listed apart in the source

Row | solubility (physchem [1]) [µg/mL] | solubility (physchem [3]) [µg/mL] | clearance (in vivo [4]) [mL/min/kg] | AUC (Rattus norvegicus [5]) [ng·h/mL] | half-life (in vivo [6]) [h] | Vdss (Rattus norvegicus [7]) [L/kg] | Structure (SMILES) | solubility (physchem [2]) [µg/mL]
1 | 6 (≈ 10 µM) | > 200 | > 66.7 |  |  |  | CC(=O)Nc1nc2c(Oc3cc(-c4ccc(C(F)(F)F)cc4NC(=O)[C@@H]4CCCN4CC(C)C)ncn3)cccc2s1 | 39 (≈ 65.1 µM)
2 | 1 (≈ 1.67 µM) | > 200 | > 66.7 |  |  |  | CC(=O)Nc1nc2c(Oc3cc(-c4ccc(C(F)(F)F)cc4NC(=O)[C@H]4CCCN4CC(C)C)ncn3)cccc2s1 | 39 (≈ 65.1 µM)
3 | < 1 | < 1 |  | 5400 | 6.3 | 1.6 | CC(=O)Nc1nc2c(Oc3cc(-c4ccc(C(F)(F)F)cc4)ncn3)cccc2s1 [AMG-517] | 

Row | Structure (SMILES) | solubility (physchem [1]) [µg/mL] | solubility (physchem [3]) [µg/mL] | clearance (in vivo [4]) [mL/min/kg] | AUC (Rattus norvegicus [5]) [ng·h/mL] | half-life (in vivo [6]) [h] | Vdss (Rattus norvegicus [7]) [L/kg] | solubility (physchem [2]) [µg/mL]
4 | CC(=O)Nc1nc2c(Oc3cc(-c4ccc(C(F)(F)F)cc4NC(=O)CCN(C)C)ncn3)cccc2s1 | 3.9 (≈ 7.16 µM) | 81 (≈ 149 µM) |  |  |  |  | 30 (≈ 55.1 µM)
5 | CC(=O)Nc1nc2c(Oc3cc(-c4ccc(C(F)(F)F)cc4NC(=O)[C@@H]4CCC(C)N4)ncn3)cccc2s1 (stereo not given in full) | 7.4 (≈ 13.3 µM) | 120 (≈ 216 µM) | 10.3 |  |  |  | 59 (≈ 106 µM)
